Test results from patent US12466822B2, “Heterocyclic compounds as immunomodulators” (Incyte Corporation, priority 2016, dated 2025).

Target: T1, PD-1/PD-L1 protein/protein interaction (recombinant human PD-L1 protein (19-238), recombinant human PD-1 protein (25-167)) (Homo sapiens, UniProt Q9NZQ7)
T1 construct: Recombinant human PD-L1 protein (19-238) with a His-tag at the C-terminus; purchased AcroBiosystems PD1-H5229 (PD-L1-His); PD1-H5257 (PD-1-Fc)
Assay: PD-1/PD-L1 Homogeneous Time-Resolved Fluorescence (HTRF) Binding Assay
Details: 25° C., PBS buffer (pH 7.4), 40 minutes preincubation with inhibitors
How it was run: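 HTRF read-out (665/620 nm) after 60 min at 25 °C with 1 nM Eu anti-human IgG and 20 nM APC anti-His. Beforehand, inhibitors were preincubated 40 min with Fc-PD-1 (25-167, […] as listed) and His-PD-L1 (19-238, 10 nM) in PBS pH 7.4 with Tween-20, BSA, 1% DMSO; IC50 from log-concentration curve.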

T1 sequence (Q9NZQ7 19-238): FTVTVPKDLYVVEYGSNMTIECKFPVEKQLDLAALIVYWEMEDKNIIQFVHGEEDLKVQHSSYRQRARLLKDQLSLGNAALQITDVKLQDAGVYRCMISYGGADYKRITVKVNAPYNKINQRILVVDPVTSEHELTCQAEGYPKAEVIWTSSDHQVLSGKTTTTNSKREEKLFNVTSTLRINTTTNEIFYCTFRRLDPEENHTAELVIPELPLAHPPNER

Compound	IC50 [nM]
Cc1c(Nc2nccc3cc(CN4CC[C@@H](O)C4)cnc23)cccc1-c1cccc(NC(=O)c2nc3c(n2C)CCN(C(C)CC(=O)O)C3)c1Cl (stereo partly drawn) [Example 54, 3-(2-(2-chloro-3′-(3-(((R)-3-hydroxypyrrolidin-1-yl)methyl)-1,7-naphthyridin-8-ylamino)-2′-methylbiphenyl-3-ylcarbamoyl)-1-methyl-6,7-dihydro-1H-imidazo[4,5-c]pyridin-5(4H)-yl)butanoic acid]	≤ 10
Cc1c(Nc2nccc3cc(CN[C@@H](C)CO)cnc23)cccc1-c1cccc(NC(=O)c2nc3c(n2C)CCN(CC[C@H]2CC[C@H](C(=O)O)CC2)C3)c1Cl [Example 60, trans 4-(2-(2-(2-chloro-3′-(3-(((S)-1-hydroxypropan-2-ylamino)methyl)-1,7-naphthyridin-8-ylamino)-2′-methylbiphenyl-3-ylcarbamoyl)-1-methyl-6,7-dihydro-1H-imidazo[4,5-c]pyridin-5(4H)-yl)ethyl)cyclohexanecarboxylic acid]	≤ 10
Cc1c(Nc2nccc3cc(CN4CC[C@@](C)(O)C4)cnc23)cccc1-c1cccc(NC(=O)c2nc3c(n2C)CCN(CC[C@H]2CC[C@H](C(=O)O)CC2)C3)c1Cl [Example 61, trans-4-(2-(2-(2-chloro-3′-(3-(((R)-3-hydroxy-3-methylpyrrolidin-1-yl)methyl)-1,7-naphthyridin-8-ylamino)-2′-methylbiphenyl-3-ylcarbamoyl)-1-methyl-6,7-dihydro-1H-imidazo[4,5-c]pyridin-5(4H)-yl)ethyl)cyclohexanecarboxylic acid]	≤ 10
Cc1c(NC(=O)c2nc3c(n2C)CCN(CC[C@H]2CC[C@H](C(=O)O)CC2)C3)cccc1-c1cccc(Nc2nccc3cc(CN4CC[C@@H](O)C4)cnc23)c1C [Example 63, trans-4-(2-(2-(3′-(3-(((R)-3-hydroxypyrrolidin-1-yl)methyl)-1,7-naphthyridin-8-ylamino)-2,2′-dimethylbiphenyl-3-ylcarbamoyl)-1-methyl-6,7-dihydro-1H-imidazo[4,5-c]pyridin-5(4H)-yl)ethyl)cyclohexanecarboxylic acid]	≤ 10
Cc1c(NC(=O)c2nc3c(n2C)CCN(CC[C@H]2CC[C@H](C(=O)O)CC2)C3)cccc1-c1cccc(Nc2nccc3cc(CN4CC[C@@H](O)C4)cnc23)c1Cl [Example 66, trans 4-(2-(2-(2′-chloro-3′-(3-(((R)-3-hydroxypyrrolidin-1-yl)methyl)-1,7-naphthyridin-8-ylamino)-2-methylbiphenyl-3-ylcarbamoyl)-1-methyl-6,7-dihydro-1H-imidazo[4,5-c]pyridin-5(4H)-yl)ethyl)cyclohexanecarboxylic acid]	≤ 10
Cc1c(Nc2ncnc3cc(CN4CC[C@@](C)(C(=O)O)C4)cnc23)cccc1-c1cccc(NC(=O)c2nc3c(n2C)CCN(C)C3)c1Cl [Example 67, (R)-1-((4-(2′-chloro-3′-(1,5-dimethyl-4,5,6,7-tetrahydro-1H-imidazo[4,5-c]pyridine-2-carboxamido)-2-methylbiphenyl-3-ylamino)pyrido[3,2-d]pyrimidin-7-yl)methyl)-3-methylpyrrolidine-3-carboxylic acid]	≤ 10
Cc1c(Nc2nccc3cc(CN4CC[C@@H](O)C4)cnc23)cccc1-c1cccc(Nc2nccc3nc(CN4CC[C@@H](C(=O)O)C4)cnc23)c1C [Example 70, (R)-1-((5-(3′-(3-(((R)-3-hydroxypyrrolidin-1-yl)methyl)-1,7-naphthyridin-8-ylamino)-2,2′-dimethylbiphenyl-3-ylamino)pyrido[4,3-b]pyrazin-2-yl)methyl)pyrrolidine-3-carboxylic acid]	≤ 10
Cc1c(Nc2nccc3cc(CN4CC[C@@H](C(=O)O)C4)cnc23)cccc1-c1cccc(Nc2nccc3cc(C4CCCN4)cnc23)c1C (stereo partly drawn) [Example 71, (3R)-1-((8-(2,2′-dimethyl-3′-(3-(pyrrolidin-2-yl)-1,7-naphthyridin-8-ylamino)biphenyl-3-ylamino)-1,7-naphthyridin-3-yl)methyl)pyrrolidine-3-carboxylic acid]	≤ 10
OCCNCc1cnc2c(Nc3cccc(-c4cccc(Nc5nccc6cc(CN7CC[C@@H](O)C7)cnc56)c4Cl)c3Cl)nccn12 [Example 72, (R)-1-((8-(2,2′-dichloro-3′-(3-((2-hydroxyethylamino)methyl)imidazo[1,2-a]pyrazin-8-ylamino)biphenyl-3-ylamino)-1,7-naphthyridin-3-yl)methyl)pyrrolidin-3-ol]	≤ 10
Cc1c(Nc2nccc3cc(CN4CC[C@H](O)C4)cnc23)cccc1-c1cccc(Nc2nccc3cc(CN4CC[C@@H](O)C4)cnc23)c1Cl [Example 74, (S)-1-((8-((2′-chloro-3′-((3-(((R)-3-hydroxypyrrolidin-1-yl)methyl)-1,7-naphthyridin-8-yl)amino)-2-methyl-[1,1′-biphenyl]-3-yl)amino)-1,7-naphthyridin-3-yl)methyl)pyrrolidin-3-ol]	≤ 10

Continued, values first:

IC50 [nM]	Compound
≤ 10	Cc1c(Nc2nccc3cc(CN4CC[C@H](O)C4)cnc23)cccc1-c1cccc(NC(=O)c2nc3c(n2C)CCN(C[C@H]2CC[C@@H](C(=O)O)CC2)C3)c1Cl [Example 55, cis 4-((2-(2-chloro-3′-(3-(((S)-3-hydroxypyrrolidin-1-yl)methyl)-1,7-naphthyridin-8-ylamino)-2′-methylbiphenyl-3-ylcarbamoyl)-1-methyl-6,7-dihydro-1H-imidazo[4,5-c]pyridin-5(4H)-yl)methyl)cyclohexanecarboxylic acid]
≤ 10	Cc1c(Nc2nccc3cc(CN4CC[C@@](C)(O)C4)cnc23)cccc1-c1cccc(NC(=O)c2nc3c(n2C)CCN(C[C@H]2CC[C@@H](C(=O)O)CC2)C3)c1Cl [Example 56, cis 4-((2-(2-chloro-3′-(3-(((R)-3-hydroxy-3-methylpyrrolidin-1-yl)methyl)-1,7-naphthyridin-8-ylamino)-2′-methylbiphenyl-3-ylcarbamoyl)-1-methyl-6,7-dihydro-1H-imidazo[4,5-c]pyridin-5(4H)-yl)methyl)cyclohexanecarboxylic acid]
≤ 10	Cc1c(Nc2nccc3cc(CN4CC[C@@](C)(O)C4)cnc23)cccc1-c1cccc(NC(=O)c2nc3c(n2C)CCN(C2CCC(C(=O)O)CC2)C3)c1Cl (stereo partly drawn) [Example 57, (R)-4-(2-(2-chloro-3′-(3-((3-hydroxy-3-methylpyrrolidin-1-yl)methyl)-1,7-naphthyridin-8-ylamino)-2′-methylbiphenyl-3-ylcarbamoyl)-1-methyl-6,7-dihydro-1H-imidazo[4,5-c]pyridin-5(4H)-yl)cyclohexanecarboxylic acid]
≤ 10	Cc1c(Nc2nccc3cc(CN4CC[C@](C)(O)C4)cnc23)cccc1-c1cccc(NC(=O)c2nc3c(n2C)CCN(C2CCC(C(=O)O)CC2)C3)c1Cl (stereo partly drawn) [Example 58, (S)-4-(2-(2-chloro-3′-(3-((3-hydroxy-3-methylpyrrolidin-1-yl)methyl)-1,7-naphthyridin-8-ylamino)-2′-methylbiphenyl-3-ylcarbamoyl)-1-methyl-6,7-dihydro-1H-imidazo[4,5-c]pyridin-5(4H)-yl)cyclohexanecarboxylic acid]
≤ 10	Cc1c(Nc2nccc3cc(CN[C@H](C)CO)cnc23)cccc1-c1cccc(NC(=O)c2nc3c(n2C)CCN(CC[C@H]2CC[C@H](C(=O)O)CC2)C3)c1Cl [Example 59, trans 4-(2-(2-(2-chloro-3′-(3-(((R)-1-hydroxypropan-2-ylamino)methyl)-1,7-naphthyridin-8-ylamino)-2′-methylbiphenyl-3-ylcarbamoyl)-1-methyl-6,7-dihydro-1H-imidazo[4,5-c]pyridin-5(4H)-yl)ethyl)cyclohexanecarboxylic acid]
≤ 10	Cn1c(C(=O)Nc2cccc(-c3cccc(Nc4nccc5cc(CN6CC[C@@H](O)C6)cnc45)c3Cl)c2Cl)nc2c1CCN(CC[C@H]1CC[C@H](C(=O)O)CC1)C2 [Example 65, Trans-4-(2-(2-(2,2′-dichloro-3′-(3-(((R)-3-hydroxypyrrolidin-1-yl)methyl)-1,7-naphthyridin-8-ylamino)biphenyl-3-ylcarbamoyl)-1-methyl-6,7-dihydro-1H-imidazo[4,5-c]pyridin-5(4H)-yl)ethyl)cyclohexanecarboxylic acid]
≤ 10	Cc1c(Nc2ncnc3cc(CN4CC[C@@H](O)C4)cnc23)cccc1-c1cccc(NC(=O)c2nc3c(n2C)CCN(C[C@H]2CC[C@H](C(=O)O)CC2)C3)c1Cl [Example 69, trans 4-((2-(2-chloro-3′-(7-(((R)-3-hydroxypyrrolidin-1-yl)methyl)pyrido[3,2-d]pyrimidin-4-ylamino)-2′-methylbiphenyl-3-ylcarbamoyl)-1-methyl-6,7-dihydro-1H-imidazo[4,5-c]pyridin-5(4H)-yl)methyl)cyclohexanecarboxylic acid]
≤ 10	Cc1c(Nc2nccc3cc(CN4CCCC4)cnc23)cccc1-c1cccc(Nc2nccc3cc(CN4CC[C@@H](O)C4)cnc23)c1C [Example 73, (R)-1-((8-((2,2′-dimethyl-3′-((3-(pyrrolidin-1-ylmethyl)-1,7-naphthyridin-8-yl)amino)-[1,1′-biphenyl]-3-yl)amino)-1,7-naphthyridin-3-yl)methyl)pyrrolidin-3-ol]
≤ 10	Cc1c(Nc2nccc3cc(CN4CC(C(=O)O)C4)cnc23)cccc1-c1cccc(Nc2nccc3cc(CN4CC[C@@H](O)C4)cnc23)c1Cl [Example 75, (R)-1-((8-((2′-chloro-3′-((3-((3-hydroxypyrrolidin-1-yl)methyl)-1,7-naphthyridin-8-yl)amino)-2-methyl-[1,1′-biphenyl]-3-yl)amino)-1,7-naphthyridin-3-yl)methyl)azetidine-3-carboxylic acid]
